Assay results published in PubChem BioAssay (NCI).
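48-hour exposure; five concentrations; linearly interpolated endpoints. The concentration for full growth arrest is given as TGI.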

Assays:
Assay in all cases: inhibition of tumour cell growth, NCI panel, 48 h
SN12C renal = system: SN12C renal
SK-OV-3 ovarian = system: SK-OV-3 ovarian
SK-MEL-2 melanoma = system: SK-MEL-2 melanoma
CCRF-CEM leukemia = system: CCRF-CEM leukemia
PC-3 prostate = system: PC-3 prostate
NCI-H226 lung = system: NCI-H226 lung
CAKI-1 renal = system: CAKI-1 renal
SF-268 CNS = system: SF-268 CNS
MDA-MB-435 = system: MDA-MB-435
HCT-116 colon = system: HCT-116 colon
KM12 colon = system: KM12 colon
SF-295 CNS = system: SF-295 CNS
SR leukemia = system: SR leukemia
HS 578T breast = system: HS 578T breast
HCC-2998 colon = system: HCC-2998 colon
MALME-3M melanoma = system: MALME-3M melanoma
MDA-N = system: MDA-N
HT29 colon = system: HT29 colon
RXF 393 renal = system: RXF 393 renal
T-47D breast = system: T-47D breast

Structure (SMILES) | TGI (SN12C renal) [µM] | TGI (SK-OV-3 ovarian) [µM] | TGI (SK-MEL-2 melanoma) [µM] | TGI (CCRF-CEM leukemia) [µM] | TGI (PC-3 prostate) [µM] | TGI (NCI-H226 lung) [µM] | TGI (CAKI-1 renal) [µM] | TGI (SF-268 CNS) [µM] | TGI (MDA-MB-435) [µM] | TGI (HCT-116 colon) [µM] | TGI (KM12 colon) [µM] | TGI (SF-295 CNS) [µM] | TGI (SR leukemia) [µM] | TGI (HS 578T breast) [µM] | TGI (HCC-2998 colon) [µM] | TGI (MALME-3M melanoma) [µM] | TGI (MDA-N) [µM] | TGI (HT29 colon) [µM] | TGI (RXF 393 renal) [µM] | TGI (T-47D breast) [µM]
O=C(O)CCNC(=O)c1cc(N(CCBr)CCBr)c([N+](=O)[O-])cc1[N+](=O)[O-] | > 100 | > 100 | > 100 | > 100 | > 100 | > 100 | > 100 | > 100 | > 100 | > 100 | > 100 | > 100 | > 100 | > 100 | > 100 | > 100 | > 100 | > 100 |  | 
COC(=O)C1(C(=O)OC)N=C(C)OC1c1ccccn1 (centres undefined) | > 100 | > 100 | > 100 | > 100 | > 100 | > 100 | > 100 |  | > 100 | > 100 | > 100 | > 100 | > 100 |  | > 100 |  | > 100 |  | > 100 | > 100
C/C(=N\NS(=O)(=O)c1ccc(C)cc1)c1cc2ccccc2n1C | 57.7 |  | > 100 | > 100 |  |  |  | > 100 |  | > 100 | > 100 | > 100 | > 100 |  | > 100 | > 100 |  | > 100 |  | 
COC(=O)C(CC(C)=O)CS(=O)(=O)CC(=O)C(=O)Nc1cccc([N+](=O)[O-])c1 (centres undefined) | > 100 | > 100 | > 100 | > 100 |  | > 100 | > 100 | > 100 |  | > 100 | > 100 |  |  |  | > 100 | > 100 |  |  | > 100 | 
Cc1[nH]n(C(=N)N)c(=O)c1CCO | > 100 | > 100 | > 100 | > 100 | > 100 | > 100 | > 100 | > 100 | > 100 | > 100 |  | > 100 | > 100 | > 100 | > 100 | > 100 | > 100 | > 100 | > 100 | 
Cc1cc2oc(-c3ccccc3)c(C)c(=O)c2c2c1OC(C)(C)S2 | > 100 | > 100 | > 100 | > 100 |  | > 100 |  | > 100 |  | > 100 | > 100 | > 100 | > 100 |  | > 100 | > 100 |  | > 100 | > 100 | 
O=C(Nc1nc(C23CC4CC(CC(C4)C2)C3)cs1)c1cc2cc(Cl)ccc2oc1=O | > 100 |  |  | > 100 | > 100 | > 100 | > 100 |  | > 100 | > 100 | > 100 | > 100 | > 100 | > 100 | > 100 | > 100 | > 100 | > 100 | > 100 | 
COc1cccc(CCNc2c(C#N)c3nc4ccccc4n3c3ccccc23)c1 | > 70 | > 100 | > 100 | > 100 | > 100 | > 100 | > 100 | > 100 |  | > 61.5 | > 44.5 | > 100 | > 100 | > 27.2 | > 100 | > 100 |  | > 100 | > 100 | > 52.6
CC1(C)OCC(C2OC(OC(=O)c3ccc([N+](=O)[O-])cc3)C3OC(C)(C)OC23)O1 (centres undefined) | > 100 | > 100 | > 100 | > 100 | > 100 | > 100 | > 100 | > 100 | > 100 | > 100 | > 100 | > 100 | > 100 |  | > 100 | > 100 | > 100 | > 100 | > 100 | 
C[C@H](NC(=O)n1c2ccccc2c2ccccc21)C(=O)O | > 100 | > 100 | > 100 | > 100 |  | > 100 | > 100 | > 100 |  | > 100 | > 100 | > 100 | > 100 |  | > 100 | > 100 |  | > 100 | > 100 | 
COC(=O)c1c2c(cc3c1CC1(C3)Cc3cc4c(c(C(C)=O)c3C1)CCC4)C=CC2 (centres undefined) | > 31.6 |  | > 31.6 | > 31.6 | > 31.6 | > 31.6 | > 100 | > 31.6 | > 31.6 | > 31.6 | > 31.6 | > 31.6 | > 31.6 | > 31.6 |  |  |  | > 31.6 |  | > 31.6
CC(C)(C)CNC(=O)NCn1cc(-c2ccccc2)nn1 | > 100 |  | > 100 | > 100 | > 100 | > 100 | > 100 | > 100 |  | > 100 | > 100 | > 100 | > 100 |  | > 100 | > 100 |  | > 100 |  | 
COC(=O)C1=CC2CC1C(S(=O)(=O)c1ccccc1)C2S(=O)(=O)c1ccccc1 (centres undefined) | 28.8 | > 100 |  | 8.44 |  | 40.2 | 20.8 | 53.5 |  | 28.7 |  | 53.8 | 11.3 |  | 34.4 | 23.5 |  | 28.9 |  | 
CCN1C(=O)/C(=C2\SC(c3ccccc3)(c3ccccc3)c3ccccc32)SC1=S | > 100 | > 100 |  | > 100 | > 100 | > 100 |  | > 100 | > 100 | > 100 | > 100 | > 100 | 42.9 | > 100 | > 100 | > 100 | > 100 | > 100 | > 100 | 
Cc1ccc2c(c1)C1(OC(=O)c3ccccc31)c1ccc(F)cc1O2 (centres undefined) | > 100 | > 100 | > 100 | > 100 |  | 85.8 | > 100 | > 100 |  | > 100 | > 100 |  | 73.8 |  | > 100 | > 100 |  | > 100 |  | 
O=[N+]1ON=C(c2ccccc2)C1=C1C(c2c(-c3ccccc3)no[n+]2[O-])=NON1[O-] | > 100 | > 100 |  | > 100 | 11.3 | 62.5 | 56.7 | > 100 | 6.56 | 16.2 | > 100 | > 100 | > 100 | > 100 | > 100 | 51.3 | 10.5 | 24.8 | 10.1 | 
O=C(NNC(=S)Nc1ccc(Br)cc1)c1cc(-c2ccccc2)nc2ccccc12 | 37.1 | 47.5 | 41.7 | 42.8 | 46.3 | 73.7 | 72.6 | > 100 | 43.2 | 30.4 | > 100 | 38.3 | 40.6 | 94.2 | 30.8 | 43.6 |  | 82.4 | 40.4 | 60.9
c1cnc2c(c1)-n1cccc1C1(CCSC1)NN2 (centres undefined) | > 100 |  | > 100 | > 100 |  | > 100 | > 100 | > 100 |  | > 100 | > 100 | > 100 | > 100 |  | > 100 | > 100 |  | > 100 |  | 
CCOC(=O)C(=[N+]=[N-])C(=O)CN1C(=O)C2CC(C)=C(C)CC2C1O (centres undefined) |  |  | > 100 | > 100 | > 100 | > 100 |  | > 100 | > 100 | > 100 | > 100 | > 100 | > 100 | > 100 | > 100 | > 100 | > 100 | > 100 | > 100 | 
Cc1ccc(NCC(=O)N2CC(=O)Nc3ccccc32)cc1 | > 100 | > 100 | > 100 | > 100 |  | > 100 | > 100 | > 100 |  | > 100 | > 100 | > 100 | > 100 |  | > 100 | > 100 |  | > 100 | > 100 | 
CC(=O)Nc1ccc(-c2nc3ccccc3s2)cc1C |  | > 100 | > 100 | > 100 | > 100 | > 100 | 59 | > 100 | > 100 | > 100 | > 100 | > 100 | > 100 | > 100 | > 100 |  |  | > 100 | > 100 | > 100
NNC1=N/C(=C\c2ccco2)C(=O)N1 | > 100 | > 100 | > 100 |  | > 100 | > 100 | > 100 |  | > 100 | > 100 | > 100 | > 100 | > 100 |  | > 100 | > 100 | > 100 | > 100 |  | > 100
CC1(c2cccc(N)c2)C2C(=O)NC(=O)C1C(=O)NC2=O (centres undefined) | 97.7 | 91.5 | 57.7 | 62.5 |  | 83.8 | > 100 | > 100 |  |  | > 100 | 58.8 |  |  | > 100 | 95 |  | > 100 | 71.2 | 
COc1ccc(N2C(=O)c3c(c4[nH]c5ccc(OC)cc5c4c4ccc(C(C)(C)C)cc34)C2=O)cc1 | > 100 | > 100 | > 100 | > 100 |  | > 100 |  | > 100 |  | > 100 | > 100 | > 100 |  |  | > 100 | > 100 |  | > 100 |  | 
Cc1c(/C=N/NC(=S)Nc2ccccc2)c(=O)n(-c2ccccc2)n1C |  | > 100 | > 100 | > 100 | > 100 | > 100 | > 100 | > 100 | > 100 | > 100 | > 100 | > 100 | > 100 | > 100 | > 100 |  |  | > 100 | > 100 | > 100
CCOC(=O)CSc1nnc(CSc2nc(-c3ccccc3)c(-c3ccccc3)[nH]2)n1-c1ccccc1 | 34.9 | 43.8 | > 31.6 | > 100 | 43.8 | > 73.6 |  | > 81.3 |  | > 100 | > 100 | > 100 | > 100 |  | 37.1 | > 100 | > 100 | > 100 | 39.5 | 89.7
CCC12CCCNC1c1c(n(C)c3ccccc13)C(C(=O)OC)C2 (centres undefined) | > 275 | 186 | 259 | > 275 |  | > 275 | 77.3 | > 275 |  | > 275 | 161 | 124 | > 275 |  | > 275 | > 275 |  | 114 | 153 | 
CSc1cc(Br)ccc1-n1c(C(=O)c2ccccc2)c(SC)n(-c2ccccc2)c1=O | > 100 | > 100 |  |  | > 100 | > 100 | > 100 | > 100 |  | > 100 | > 100 | > 100 | > 100 | > 100 | > 100 |  | > 100 | > 100 |  | 
Cc1ccc2c(c1)C1C(CO2)C(c2ccccc2)=NN1c1ccccc1 (centres undefined) |  | > 100 | > 100 | > 100 |  |  |  | > 100 |  | > 100 | > 100 | > 100 |  |  | > 100 | > 100 |  | > 100 | > 100 | 
Cc1cc(C)n2c(-c3ccccc3)c(C)cc2n1 | > 100 | > 100 | > 100 | 43.6 |  | > 100 | > 100 | > 100 |  | > 100 | > 100 | > 100 |  |  | > 100 | > 100 |  | > 100 | > 100 | 
